Calls of active or inactive are those of the source. No cut-off for these calls is given here.
Columns and labels:
[1] = tested on: Plasmodium falciparum; test: Antimalarial activity as 3rd generation parasitaemia after 96 hrs against chloroquine-sensitive Plasmodium falciparum 3D7 infected human erythrocytes at 1 uM 12-36 hrs post invasion; type: functional
[2] = Tmax in patient with tuberculosis at 600 mg, po once daily for 15 to 18 days; type: ADME, organism-based; conditions: human, in vivo
[3] = tested on: Plasmodium falciparum; test: Antimalarial activity as 3rd generation ring-stage chloroquine-sensitive Plasmodium falciparum 3D7 after 48 hrs dose then 48 hrs drug-free; type: functional, organism-based; conditions: 3D7, 48 h
[4] = tested on: Plasmodium falciparum; test: Antimalarial activity as abnormal apicoplast morphology in chloroquine-sensitive ACP1-GFP-labeled Plasmodium falciparum 3D7 after 48 hrs at 2xIC50 dosed 96 hrs post infection; type: functional, organism-based
[5] = tested on: Plasmodium falciparum; test: Antimalarial activity as arrested schizont maturation in chloroquine-sensitive Plasmodium falciparum 3D7 infected human erythrocytes after 48 hrs at 1 uM dosed 96 hrs post infection; type: functional, organism-based
[6] = tested on: Plasmodium falciparum; test: Antimalarial activity as 3rd generation parasitaemia after 96 hrs against chloroquine-sensitive Plasmodium falciparum 3D7 infected human erythrocytes at 1 uM 0-36 hrs post invasion; type: functional
[7] = tested on: Plasmodium falciparum; test: Antimalarial activity as parasitaemia against chloroquine-sensitive ACP1-GFP-labeled Plasmodium falciparum 3D7 trophozoite infected human erythrocytes at 2xIC50 dosed 96 hrs post infection; type: functional
[8] = tested on: Plasmodium falciparum; test: Antimalarial activity as 3rd generation parasitaemia after 96 hrs against chloroquine-sensitive Plasmodium falciparum 3D7 infected human erythrocytes at 1 uM 24-48 hrs post invasion; type: functional
[9] = Cmax in patient with tuberculosis at 600 mg, po once daily for 15 to 18 days; type: ADME, organism-based; parameters: dose 600 mg, route oral; conditions: human, in vivo
[10] = tested on: Plasmodium falciparum; test: Antimalarial activity as 2nd generation ring-stage chloroquine-resistant Plasmodium falciparum W2 after 48 hrs by flow cytometry; type: functional, organism-based; conditions: W2, 48 h
[11] = tested on: Plasmodium falciparum; test: Antimalarial activity as 3rd generation parasitaemia after 96 hrs against chloroquine-sensitive Plasmodium falciparum 3D7 infected human erythrocytes at 1 uM 0-24 hrs post invasion; type: functional
[12] = Half life in patient with tuberculosis at 600 mg, po once daily for 15 to 18 days; type: ADME, organism-based; conditions: human, in vivo
[13] = tested on: Plasmodium falciparum; test: Antimalarial activity as 3rd generation parasitaemia after 96 hrs against chloroquine-sensitive Plasmodium falciparum 3D7 infected human erythrocytes at 1 uM 36-48 hrs post invasion; type: functional
[14] = tested on: Plasmodium falciparum; test: Antimalarial activity as segregation of apicoplasts against chloroquine-sensitive Plasmodium falciparum 3D7 infected human erythrocytes at 1 uM 96 hrs post infection; type: functional, organism-based
[15] = tested on: Plasmodium falciparum; test: Antimalarial activity as 3rd generation parasitaemia after 96 hrs against chloroquine-sensitive Plasmodium falciparum 3D7 infected human erythrocytes at 1 uM 0-12 hrs post invasion; type: functional
[16] = tested on: Plasmodium falciparum; test: Antimalarial activity as 3rd generation parasitaemia after 96 hrs against chloroquine-sensitive Plasmodium falciparum 3D7 infected human erythrocytes at 1 uM 0-48 hrs post invasion; type: functional
[17] = tested on: Plasmodium falciparum; test: Antimalarial activity as 3rd generation parasitaemia after 96 hrs against chloroquine-sensitive Plasmodium falciparum 3D7 infected human erythrocytes at 1 uM 12-48 hrs post invasion; type: functional
[18] = tested on: Plasmodium falciparum; test: Antimalarial activity as 2nd generation ring-stage chloroquine-sensitive Plasmodium falciparum 3D7 after 48 hrs by flow cytometry; type: functional, organism-based; conditions: 3D7, 48 h
[19] = tested on: Plasmodium falciparum; test: Antimalarial activity as segregation of apicoplasts against chloroquine-sensitive ACP1-GFP-labeled Plasmodium falciparum 3D7 schizont infected human erythrocytes at 1 uM 96 hrs post infection; type: functional, organism-based
[20] = tested on: Plasmodium falciparum; test: Antimalarial activity as 3rd generation parasitaemia after 96 hrs against chloroquine-sensitive Plasmodium falciparum 3D7 infected human erythrocytes at 1 uM treated 12-24 hrs post invasion; type: functional
[21] = tested on: Plasmodium falciparum; test: Antimalarial activity in chloroquine-sensitive ACP1-GFP-labeled Plasmodium falciparum 3D7 after 48 hrs at 2xIC50 dosed 96 hrs post infection; type: functional, organism-based
[22] = tested on: Plasmodium falciparum; test: Antimalarial activity as 3rd generation parasitaemia after 96 hrs against chloroquine-sensitive Plasmodium falciparum 3D7 infected human erythrocytes at 1 uM 24-36 hrs post invasion; type: functional
[23] = tested on: Plasmodium falciparum; test: Antimalarial activity as 3rd generation ring-stage chloroquine-resistant Plasmodium falciparum W2 after 48 hrs dose then 48 hrs drug-free; type: functional, organism-based; conditions: W2, 48 h
[24] = tested on: Plasmodium falciparum; test: Antimalarial activity as abnormal apicoplast morphology in chloroquine-sensitive ACP1-GFP-labeled Plasmodium falciparum 3D7 trophozoite infected human erythrocytes at 2xIC50 dosed 96 hrs post infection; type: functional
[25] = tested on: Plasmodium falciparum; test: Antimalarial activity as 3rd generation after 96 hrs against chloroquine-sensitive Plasmodium falciparum 3D7 infected human erythrocytes at 6 uM 0-48 hrs post invasion; type: functional
[26] = tested on: Plasmodium falciparum; test: Antimalarial activity as 3rd generation parasitaemia against chloroquine-sensitive Plasmodium falciparum 3D7 infected human erythrocytes after 96hrs at 6 uM dosed 24-48 hrs post infection; type: functional
[27] = tested on: Plasmodium falciparum; test: Antimalarial activity as 3rd generation parasitaemia against chloroquine-sensitive Plasmodium falciparum 3D7 infected human erythrocytes after 96hrs at 6 uM dosed 36-48 hrs post infection; type: functional
[28] = Tmax in patient with bronchitis at 500 mg, po twice daily for 3 days; conditions: human, in vivo
[29] = tested on: Plasmodium falciparum; test: Antimalarial activity as segregation of apicoplasts against chloroquine-sensitive ACP1-GFP-labeled Plasmodium falciparum 3D7 schizont infected human erythrocytes at 6 uM 96 hrs post infection; type: functional, organism-based
[30] = tested on: Plasmodium falciparum; test: Antimalarial activity as 3rd generation parasitaemia against chloroquine-sensitive Plasmodium falciparum 3D7 infected human erythrocytes after 96hrs at 6 uM dosed 12-36 hrs post infection; type: functional
[31] = tested on: Plasmodium falciparum; test: Antimalarial activity as 3rd generation parasitaemia against chloroquine-sensitive Plasmodium falciparum 3D7 infected human erythrocytes after 96hrs at 6 uM dosed 0-36 hrs post infection; type: functional
[32] = tested on: Plasmodium falciparum; test: Antimalarial activity as 3rd generation parasitaemia against chloroquine-sensitive Plasmodium falciparum 3D7 infected human erythrocytes after 96hrs at 6 uM dosed 12-48 hrs post infection; type: functional
[33] = tested on: Plasmodium falciparum; test: Antimalarial activity as 3rd generation parasitaemia against chloroquine-sensitive Plasmodium falciparum 3D7 infected human erythrocytes after 96hrs at 6 uM dosed 0-12 hrs post infection; type: functional
[34] = tested on: Plasmodium falciparum; test: Antimalarial activity as schizont arrest after 48 hrs in chloroquine-sensitive Plasmodium falciparum 3D7 infected human erythrocytes at 6 uM 96 hrs post invasion by Giemsa staining; type: functional, organism-based
[35] = tested on: Plasmodium falciparum; test: Antimalarial activity as 3rd generation parasitaemia against chloroquine-sensitive Plasmodium falciparum 3D7 infected human erythrocytes after 96hrs at 6 uM dosed 24-36 hrs post infection; type: functional
[36] = tested on: Plasmodium falciparum; test: Antimalarial activity as 3rd generation parasitaemia against chloroquine-sensitive Plasmodium falciparum 3D7 infected human erythrocytes after 96hrs at 6 uM dosed 12-24 hrs post infection; type: functional
[37] = Cmax in patient with bronchitis at 500 mg, po twice daily for 3 days; conditions: human, in vivo
[38] = tested on: Plasmodium falciparum; test: Antimalarial activity as segregation of apicoplasts against chloroquine-sensitive Plasmodium falciparum 3D7 infected in human erythrocytes at 6 uM 96 hrs post infection; type: functional, organism-based
[39] = tested on: Plasmodium falciparum; test: Antimalarial activity as 3rd generation parasitaemia against chloroquine-sensitive Plasmodium falciparum 3D7 infected human erythrocytes after 96hrs at 6 uM dosed 0-24 hrs post infection; type: functional
[40] = Cmax in patient with kidney disease at 300 mg, po; type: ADME, organism-based; parameters: dose 300 mg, route oral; conditions: human, in vivo
[41] = Tmax in patient with kidney disease at 300 mg, po; type: ADME, organism-based; conditions: human, in vivo
[42] = tested on: Homo sapiens; test: Half life in patient with kidney disease at 300 mg, po; type: ADME, organism-based; conditions: in vivo

SMILES: C[C@H]1c2cccc(O)c2C(=O)C2=C(O)[C@]3(O)C(=O)C(C(N)=O)=C(O)[C@@H](N(C)C)[C@@H]3[C@@H](O)[C@@H]21.O [DOXYCYCLINE]
- Activity [1]: 12%
- Tmax [2]: 2 h
- IC50 [3]: 0.453 µM
- Activity [4]: Active
- Activity [5]: inactive
- Activity [6]: 24%
- Activity [7]: 97.2%
- Activity [8]: 87%
- Cmax [9]: 6.9 µM
- IC50 [10]: 3.3 µM
- Activity [11]: 69%
- half-life [12]: 7 h
- Activity [13]: 121%
- Activity [14]: Active
- Activity [15]: 89%
- Activity [16]: 9%
- Activity [17]: 13%
- IC50 [18]: 5.32 µM
- Activity [19]: Active
- Activity [20]: 44%
- Activity [21]: Active
- Activity [22]: 41%
- IC50 ([23]; read-out: IC50): 0.211 µM
- Activity [24]: 83.6%

SMILES: O=C(O)c1cn(C2CC2)c2cc(N3CCNCC3)c(F)cc2c1=O [CIPROFLOXACIN]
- Activity [25]: 13%
- Activity [26]: 74%
- Activity [27]: 108%
- Tmax at 72 h [28]: 0.6 h
- IC50 [3]: 3.04 µM
- Activity [7]: 98.6%
- Activity [29]: Active
- Activity [30]: 23%
- Activity [31]: 35%
- Activity [32]: 24%
- Activity [33]: 80%
- Activity [34]: inactive
- Activity [35]: 70%
- IC50 [10]: 24.9 µM
- Activity [36]: 63%
- Cmax at 72 h [37]: 7.6 µM
- Activity [38]: Active
- IC50 [18]: 9.44 µM
- Activity [39]: 67%
- IC50 [23]: 1.75 µM
- Activity [24]: 81.4%

SMILES: CCN(CC)CCCC(C)Nc1ccnc2cc(Cl)ccc12 (stereo not drawn) [CHLOROQUINE]
- Cmax [40]: 0.24 µM
- Tmax [41]: 6.6 h
- t1/2 [42]: 240 h

— ChEMBL document CHEMBL1137635, “Multiple antibiotics exert delayed effects against the Plasmodium falciparum apicoplast” (Antimicrob Agents Chemother, 2007)
